The record followed here is patent publication US20130064955A1, “NATURAL SWEETENED COMPOSITIONS AND METHODS FOR PREPARING THE SAME” (priority 2011, published 2013).

“Also recorded” adds a separate entry of the source.

In assay [1] the test system is human sense of taste. The assay can be described thus: Determination of sweetness recognition threshold concentration by trained taste tester. In kind it is in vivo. The note with it: in water at room temperature; for minimal effective concentration: Homo sapiens, read-out: Sweetness recognition threshold Level. As to the method: The term “sweetness recognition threshold concentration,” as generally used herein, is the lowest known concentration of a sweet compound that is perceivable by the human sense of taste. The sweetness recognition threshold level is specific for a particular compound, and varies based on temperature, matrix, ingredients and/or flavor system. The sweetness recognition threshold concentrations measurements and 5% sucrose equivalence measurements described herein were determined in water at room temperature.
A sip (approximately 2-5 mL) of control sample, including but not limited to water, was tasted and swallowed by a trained taste tester. After allowing a 15-25 second interval to pass, a second sip of the control is tasted and swallowed. The taste properties of the control are determined and recorded by the trained taste tester. An unknown sample is then tasted and swallowed in the same manner, allowing a 15-25 second interval between the two sips. Preferably no more than ten additives are tested per day to avoid taste fatigue. Each sample was taken at least 1.5 hours following eating or drinking The sweetness recognition thresholds concentration of 21 steviol glycosides were determined in this manner, and are shown in Table 1.

Assay [2] concerns human sense of taste. The assay can be described thus: Sugar-like taste quality enhancement of Stevia sweeteners by steviol glycoside additives, taste test by trained individual.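 For Taste change of Stevia Sweetener JSS (380 ppm) with Steviol Glycoside Additive: code −B means less bitterness.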 Format: in vivo. The settings on record: for Taste change of Stevia Sweetener REBA (303 ppm) with Steviol Glycoside Additive / Taste change of Stevia Sweetener JSS (380 ppm) with Steviol Glycoside Additive / Taste change of Stevia Sweetener REBD (303 ppm) with Steviol Glycoside Additive: additive at or below its sweetness recognition threshold concentration, 5% sucrose equivalence, water, room temperature; for Taste change of Stevia Sweetener REBA (303 ppm) with Steviol Glycoside Additive: 97% pure rebaudioside A 303 ppm; for Taste change of Stevia Sweetener REBD (303 ppm) with Steviol Glycoside Additive: rebaudioside D 303 ppm; for sugar-like taste quality enhancement effect: mostly in 5% SE rebaudioside A, compared with compound 1. As to the method:
A steviol glycoside is added in an amount at or below sweetness recognition threshold concentration to a solution of water and a Stevia sweetener. The solution is maintained at room temperature. Each sample is taste tested by a trained individual, as described in Example 1, in duplicate. Preferably no more than ten steviol glycosides are tested per day to avoid taste fatigue. Each sample was taken at least 1.5 hours following eating or drinking
The Stevia sweeteners used in this study were 97% pure rebaudioside A, JSS, and rebaudioside D.
The steviol glycosides were used in at or below sweetness recognition threshold concentrations. […]

[3] abbreviates: additive at 500 ppm, all three control 5% SE Stevia sweeteners.

As to `C[C@@]12CCC[C@@](C)(C(=O)O)[C@H]1CC[C@@]13C[C@@](OC4OC(CO)C(O)C(OC5OC(CO)C(O)C(O)C5O)C4OC4OC(CO)C(O)C(O)C4O)(CC[C@H]12)[C@](C)(O)C3` (some centres unmarked) [Compound 1], the minimal effective concentration in assay [1] amounted to 500 µg/mL. Further, in assay [2] (setting [3]), the “bitterness, sweet lingering, off-taste note” value was “no bitterness, sweet lingering or off-taste note”; the “slightly sweeter profile (increase in sucrose equivalence)” value is listed as “ca. 1 % SE”; the “sugar-like tasting quality enhancement” value is listed as “significantly enhanced all three control 5% SE Stevia sweeteners to a much superior sugar-like tasting quality”. Moreover, in assay [2], the “Taste change of Stevia Sweetener REBA (303 ppm) with Steviol Glycoside Additive” value (“Taste change of Stevia Sweetener REBA” below) is “++, ASLC,; also recorded: +S, −B”; the “Taste change of Stevia Sweetener JSS (380 ppm) with Steviol Glycoside Additive” value (“Taste change of Stevia Sweetener JSS” below) is recorded as “++, ASLC,; also recorded: +S, −B”; the “Taste change of Stevia Sweetener REBD (303 ppm) with Steviol Glycoside Additive” value (from here on “Taste change of Stevia Sweetener REBD”) is recorded as “++, ASLC,; also recorded: +S, −B”.

Turning to `C=C1C[C@@]23CC[C@H]4[C@@](C)(CCC[C@@]4(C)C(=O)O[C@@H]4O[C@H](CO)[C@@H](O)[C@H](O)[C@H]4O)[C@@H]2CC[C@]1(O[C@@H]1O[C@H](CO)[C@@H](O)[C@H](O)[C@H]1O[C@@H]1O[C@H](CO)[C@@H](O)[C@H](O)[C@H]1O)C3` [Stevioside, stevioside], in assay [1], the minimal effective concentration came out at 25 µg/mL. In assay [2], the “Taste change of Stevia Sweetener REBA” value is reported as “N (N: no difference in presence or absence of steviol glycoside additive;)” and the “Taste change of Stevia Sweetener REBD” value is on record as “N (N: no difference in presence or absence of steviol glycoside additive;)”.

Consider rebaudioside C, for which the “Sweetness recognition threshold Level” value in assay [1] is 100 ppm. Moreover, in assay [2], the “Taste change of Stevia Sweetener REBA” value was “N (N: no difference in presence or absence of steviol glycoside additive;)”, the “Taste change of Stevia Sweetener JSS” value is reported as “N (N: no difference in presence or absence of steviol glycoside additive;)” and the “Taste change of Stevia Sweetener REBD” value is reported as “N (N: no difference in presence or absence of steviol glycoside additive;)”.

As for `CC1=C[C@@]23CC[C@H]4[C@@](C)(CCC[C@@]4(C)C(=O)O)[C@@H]2CC[C@]1(OC1OC(CO)C(O)C(OC2OC(CO)C(O)C(O)C2O)C1OC1OC(CO)C(O)C(O)C1O)C3` (some centres unmarked) [Compound 2], in assay [1], the minimal effective concentration is 35 µg/mL. Moreover, in assay [2], the “Taste change of Stevia Sweetener REBA” value is reported as “++, −SL, −B”; the “Taste change of Stevia Sweetener JSS” value was “DB (DB: Different pattern of bitterness;)”; the “Taste change of Stevia Sweetener REBD” value is reported as “N(+), W”; the “sugar-like taste quality enhancement effect” value is “similar, but smaller positive sugar-like taste quality enhancement effect”.

Consider `CC1=C[C@@]23CC[C@H]4[C@@](C)(CCC[C@@]4(C)C(=O)OC4OC(CO)C(O)C(O)C4O)[C@@H]2CC[C@]1(OC1OC(CO)C(O)C(OC2OC(CO)C(O)C(O)C2O)C1OC1OC(CO)C(O)C(O)C1O)C3` (some centres unmarked) [Compound 4], for which the minimal effective concentration in assay [1] is 25 µg/mL. Besides, in assay [2], the “Taste change of Stevia Sweetener REBA” value is given as “N (N: no difference in presence or absence of steviol glycoside additive;)”, the “Taste change of Stevia Sweetener JSS” value was “N (N: no difference in presence or absence of steviol glycoside additive;)” and the “Taste change of Stevia Sweetener REBD” value was “N (N: no difference in presence or absence of steviol glycoside additive;)”.

Turning to `C[C@@]12CCC[C@@](C)(C(=O)OC3OC(CO)C(O)C(O)C3O)[C@H]1CC[C@]13C=C(CO)[C@](OC4OC(CO)C(O)C(OC5OC(CO)C(O)C(O)C5O)C4OC4OC(CO)C(O)C(O)C4O)(CC[C@H]12)C3` (some centres unmarked) [Compound 5], the minimal effective concentration in assay [1] was 250 µg/mL. In addition, the sugar-like taste quality entry in assay [2] (additive at 250 ppm, rebaudioside A) is “improve the sugar-like taste quality of rebaudioside A”. Moreover, in assay [2], the “Taste change of Stevia Sweetener REBA” value was “+, −B, W”; the “Taste change of Stevia Sweetener JSS” value is listed as “N (N: no difference in presence or absence of steviol glycoside additive;)”; the “Taste change of Stevia Sweetener REBD” value is “N (N: no difference in presence or absence of steviol glycoside additive;)”; the “sugar-like taste quality enhancement effect” value is “similar, but smaller positive sugar-like taste quality enhancement effect”.
